Results published in PubChem BioAssay (NCI).
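Cells were grown in 96-well plates and exposed to each compound for 48 hours at five concentrations; endpoints were interpolated linearly between bracketing concentrations, or set to the highest concentration if not reached. TGI: total growth inhibition.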

Assays:
Test in all cases: NCI anticancer screen, dose series, 48 h
U251 CNS = system: U251 CNS
OVCAR-4 ovarian = system: OVCAR-4 ovarian
NCI-H460 lung = system: NCI-H460 lung
UACC-257 melanoma = system: UACC-257 melanoma
HCT-116 colon = system: HCT-116 colon
K-562 leukemia = system: K-562 leukemia
NCI-H226 lung = system: NCI-H226 lung
UACC-62 melanoma = system: UACC-62 melanoma
NCI/ADR-RES ovarian = system: NCI/ADR-RES ovarian
HL-60(TB) leukemia = system: HL-60(TB) leukemia
HOP-92 NSCLC = system: HOP-92 NSCLC

Structure (SMILES) | TGI (U251 CNS) | TGI (OVCAR-4 ovarian) | TGI (NCI-H460 lung) | TGI (UACC-257 melanoma) | TGI (HCT-116 colon) | TGI (K-562 leukemia) | TGI (NCI-H226 lung) | TGI (UACC-62 melanoma) | TGI (NCI/ADR-RES ovarian) | TGI (HL-60(TB) leukemia) | TGI (HOP-92 NSCLC)
ONC1=Nc2cc(Cl)ccc2C(=S)N2CSCC12 (stereo not given) | > 100 µM | > 100 µM | > 100 µM | > 100 µM | > 100 µM | > 100 µM | > 100 µM | > 100 µM | > 100 µM |  | 
COC(=O)c1csc([C@@H](OC(=O)[C@H](C)[C@H](CCCC(C)(Cl)Cl)OC(=O)c2csc([C@H](O)CO)n2)C(C)C)n1 | 32 µM | 24.5 µM | 23.2 µM | 23.1 µM |  | 33.6 µM | 39.7 µM | 24.3 µM | 45.4 µM | 35.1 µM | 23 µM
C=CCCON(C(=O)OC(C)(C)C)c1ccccc1 | > 100 µM |  | > 100 µM | > 100 µM | > 100 µM | > 100 µM | > 100 µM | > 100 µM | > 100 µM | > 100 µM | > 100 µM
CC(C)CCNC(=O)c1ccc(CNC(=O)/C=C/c2cccc(Oc3ccccc3)c2)cc1 | > 100 µM | > 100 µM | > 100 µM | > 100 µM | > 100 µM | > 100 µM | > 100 µM | 71.1 µM | > 100 µM |  | > 100 µM
COc1cc2c(cc1OCCCCCCCCCCN1C(=O)c3cccc4cccc(c34)C1=O)N=C[C@@H]1CCCN1C2=O | 13.4 µM | 6.11 µM | 78 µM | 37.3 µM | > 100 µM | 74.7 µM | 5.25 µM | 24.8 µM | 14.4 µM | 43.2 µM | 
CNC1(c2cc3ccccc3s2)CCCCC1 | 33.8 µM | > 100 µM | 35.4 µM | 35.1 µM | > 100 µM | > 100 µM | 91.3 µM | 49 µM | > 100 µM |  | 61.6 µM
O=C1/C(=C\c2ccc([N+](=O)[O-])cc2)N(S(=O)(=O)c2ccccc2)c2ncccc21 | 34.2 µM |  | 38.3 µM | 42.8 µM | 43.1 µM | > 100 µM | 83.5 µM | 26 µM | 63.3 µM | 5.4 µM | 
O=S(Cc1ccccc1)c1nc2ccccc2nc1-c1cccs1 (stereo not given) | 33.5 µM | 24.6 µM | 45.4 µM | 26.5 µM | 23.3 µM | > 100 µM | 16.7 µM |  |  | > 100 µM | 29.8 µM
C=C(C)C1CCC(C(=O)O)CC1 (stereo not given) | > 100 µM |  | > 100 µM | > 100 µM | > 100 µM | > 100 µM | > 100 µM | > 100 µM |  |  | > 100 µM
CN(/N=C/c1ccc(C(=O)O)cc1)C1=NCCCCN1 | > 100 µM | > 100 µM | > 100 µM | > 100 µM | > 100 µM | > 100 µM | > 100 µM | > 100 µM | > 100 µM | > 100 µM | 
Cc1ccc(-n2[nH]nc(C(N)=O)c2=O)cc1 | > 100 µM | > 100 µM | > 100 µM | > 100 µM | > 100 µM | > 100 µM | > 100 µM | > 100 µM | > 100 µM | > 100 µM | 
C=CCn1c(N)c(C#N)c(C#N)c1CCC | > 100 µM | > 100 µM |  | > 100 µM |  | > 100 µM | > 100 µM | > 100 µM | > 100 µM | > 100 µM | > 100 µM
Cc1c(-c2ccccc2)cc(O)c2nc3ccccc3n12 | > 100 µM | > 100 µM | > 100 µM | > 100 µM |  | > 100 µM | > 100 µM | > 100 µM | > 100 µM | > 100 µM | > 100 µM
O=c1[nH]c2cc(C(F)(F)F)ccc2nc1C(F)(F)F | > 100 µM | > 100 µM | > 100 µM | 90.6 µM | > 100 µM | > 100 µM | > 100 µM | > 100 µM | > 100 µM |  | 45.2 µM
CC(C)(C)C1CCC(=O)/C(=C/CC2CC(=O)N(c3ccccc3)C(=O)C2)C1 (stereo not given) | 31 µM | 77.4 µM | 30.2 µM | 28.2 µM | 29.3 µM | 48.3 µM | 32 µM | 27.7 µM | 37.7 µM | 94.1 µM | 
C[C@@H](C(=O)O)N1C(c2ccco2)=C(/C(C=O)=C\c2ccco2)C(=O)/C1=C\c1ccco1 | > 100 µM | > 100 µM |  | > 100 µM | > 100 µM | > 100 µM |  | > 100 µM | > 100 µM | > 100 µM | > 100 µM
CC1(C)OCN(c2ccc(N3CCOCC3)cc2)Cn2c1nc1ccccc12 | > 100 µM | > 100 µM | > 100 µM | > 100 µM | > 100 µM | > 100 µM | > 100 µM | > 100 µM |  | 72.9 µM | > 100 µM
C=C1C(=O)OC2/C=C(\C(=O)O)CC/C=C(\C)CC(OC(=O)/C=C(\C)CC)C12 (stereo not given) | 30.7 µM | 45.1 µM | 30.7 µM | 39.9 µM | 25.6 µM | > 100 µM | 32.9 µM | 28.5 µM |  | > 100 µM | 36.8 µM
Cc1cccc(Cl)c1NCC(O)CN1CCN(C)CC1 (stereo not given) | > 100 µM | > 100 µM | > 100 µM | > 100 µM | > 100 µM | > 100 µM | > 100 µM | > 100 µM | > 100 µM |  | > 100 µM
N[C@@H]1CCN(c2c(F)cc3c(=O)c(C(=O)O)cn4c3c2Oc2c-4ccc3c2ccc2ccccc23)C1 | 10.5 µM |  | 2.91 µM | > 100 µM |  | > 100 µM | > 100 µM | > 100 µM | > 100 µM | > 100 µM | 61.7 µM
O=S(=O)(O)c1ccc(N=Nc2ccc3c(S(=O)(=O)O)cccc3c2O)c2ccccc12 | > 100 µM | > 100 µM |  | > 100 µM | > 100 µM |  | > 100 µM | > 100 µM | > 100 µM |  | > 100 µM
CC12C=CC(C)(C3C(=O)C4C(C(=O)C31)C1(C)C=CC4(C)S1=O)S2=O (stereo not given) |  |  | > 100 µM | > 100 µM |  |  | > 100 µM | > 100 µM | > 100 µM |  | 
